Converted amounts (≈) assume the structure as drawn.

We go through 2 compounds from ChEMBL document CHEMBL1124601, “Bifunctional antitumor compounds: synthesis and characterization of a Au(III)-streptonigrin complex with thiol-modulating properties” (J Med Chem, 1989).

In data set [1] the test system is P388. In words: In vitro concentration to inhibit the growth of P-388 leukemia cells. The format is functional, cell-based. The note with it: Mus musculus.
The nature of data set [2]: The dissociation constant of the free compound in 1: 1 dioxane-water mixture. Type of data set: ADME.
Data set [3] deals with P388. The data set is described as follows: Compound concentration was evaluated in vitro to inhibit the growth of P-388 leukemia cells. To be noted: Mus musculus, read-out: ID50 (the source's name). The format is functional.
Data set [4] can be described thus: The dissociation constant at pH 3 using potentiometric titration in 100 uM of compound in 0.15 M KCl at 25 degrees Centigrade. The format is ADME. The note with it: 0.15 M KCl solution.
Data set [5] in a line: The dissociation constant at pH 8 using potentiometric titration in 100 uM of compound in 0.15 M KCl at 25 degree Centigrade. The note with it: 0.15 M KCl solution. Type of data set: ADME.

For the compound “5-Amino-6-(7-amino-6-methoxy-5,8-dioxo-5,8-dihydro-quinolin-2-yl)-4-(2-hydroxy-3,4-dimethoxy-phenyl)-3-methyl-pyridine-2-carboxylic acid; compound with Gold”, the ID50 in the data set with P388 [1] turned out to be 0.05 µg/mL.
The pKa is the pH at which an ionisable group is half protonated. Turning to `COC1=C(N)C(=O)c2nc(-c3nc(C(=O)O)c(C)c(-c4ccc(OC)c(OC)c4O)c3N)ccc2C1=O` [STREPTONIGRIN], in data set [2], the pKa stood at 6.5. Moreover, the IC50 in the data set with P388 [3] amounted to 0.05 µg/mL (≈ 0.0987 µM). In addition, the pKa at 100 µM in data set [4] turned out to be 4.7; in data set [5], 6.6.
